This is an account of results in PMC7238241, “Lack of Correlation between In Vitro and In Vivo Studies on the Inhibitory Effects of (‒)-Sophoranone on CYP2C9 Is Attributable to Low Oral Absorption and Extensive Plasma Protein Binding of (‒)-Sophoranone” (Pharmaceutics, 2020).

The conditions of data set [1]: cited from earlier work.
The test system of the next data set is CYP1A2. The following applies: not in vivo because of high plasma protein binding; cited from earlier work.
Data set [2] in a line: Effects of SPN on the pharmacokinetics of diclofenac in rats. The following applies: male, Sprague-Dawley, rat, plasma, po, 2 mg/kg, oral diclofenac 2 mg/kg, n = 6; for AUC(0-t): AUCt; for AUC(0-t) / AUC(0-inf) / Cmax / Tmax: rats; for Tmax: median (ranges); for half-life: t1/2, rats.
Method: (§4) The carotid arteries of each rat were cannulated with a polyethylene tube (Clay Adams, Franklin Lakes, NJ, USA) for blood sampling. Each rat was individually housed in a rat metabolic cage and allowed to recover from anesthesia for 4–5 h prior to the start of the experiment. […] SPN was suspended in dimethylsulfoxide:PEG400:distilled water (5:60:35, v/v/v) and administered by oral gavage at a dose of 75 mg/kg in a volume of 5 mL/kg. […] The blood samples were immediately centrifuged at 13,000× g for 5 min at 4 °C. The plasma samples were divided into two Eppendorf tubes by 50 μL and stored at −80 °C until LC-MS/MS analysis.
(§5) Briefly, 50 μL aliquots of plasma were extracted with 300 μL aliquots of acetonitrile containing chlorpropamide (internal standard), followed by LC-MS/MS (Shimadzu Corporation). Chromatographic separation was performed on a Phenomenex Luna C18 column (100 × 2.00 mm; 3.0 μm). The isocratic mobile phase consisted of 0.1% formic acid in distilled water (A) and 0.1% formic acid in acetonitrile (B) (45:55, v/v), with a flow rate of 0.3 mL/min. […] The data acquisition was computed using LabSolutions LCMS Ver.5.6 (Shimadzu Corporation).
(§6) Pharmacokinetic parameters were calculated by a non-compartmental analysis using WinNonlin Professional software (version 5.2, Pharsight Corp., Mountain View, CA, USA) that used the total area under the plasma concentration–time curve from time zero to infinity (AUC∞) or the last measured time (AUCt). The logarithmic trapezoidal rule was used during the declining plasma level phase and the linear trapezoidal rule was used for the rising plasma-level phase. The peak plasma concentration (Cmax) and time to reach Cmax (Tmax) were read directly from the experimental data. Statistically significant differences were recognized at p < 0.05.
The target of a further data set is T1, CYP2A6 (Homo sapiens, UniProt P11509).
T1 construct: tissue Corning Life Sciences; host or cells: pooled human liver microsomes, 150 donors
T1 sequence (P11509 1-494): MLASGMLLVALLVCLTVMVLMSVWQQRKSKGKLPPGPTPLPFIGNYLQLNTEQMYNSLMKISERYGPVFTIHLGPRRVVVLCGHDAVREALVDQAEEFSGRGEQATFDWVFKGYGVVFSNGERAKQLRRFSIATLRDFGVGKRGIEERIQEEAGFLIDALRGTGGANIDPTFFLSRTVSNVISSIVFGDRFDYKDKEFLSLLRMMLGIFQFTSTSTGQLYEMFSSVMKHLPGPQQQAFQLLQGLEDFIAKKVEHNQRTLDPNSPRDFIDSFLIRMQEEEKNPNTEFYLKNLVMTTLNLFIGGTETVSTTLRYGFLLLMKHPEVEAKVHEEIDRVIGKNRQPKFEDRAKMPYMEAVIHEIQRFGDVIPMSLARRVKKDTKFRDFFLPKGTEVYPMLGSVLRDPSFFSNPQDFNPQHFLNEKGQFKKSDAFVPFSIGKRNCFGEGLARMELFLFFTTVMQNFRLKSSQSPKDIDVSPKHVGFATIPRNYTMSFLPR
Put plainly: Reversible CYP2A6 inhibition, cocktail assay (coumarin 7-hydroxylase) in human liver microsomes. It counts as biochemical. The procedure: (§1) The inhibitory effects of SPN on CYP1A2, CYP2A6, CYP2B6, CYP2C8, CYP2C9, CYP2C19, CYP2D6, CYP2E1, and CYP3A4 were evaluated in pooled human liver microsomes through the use of specific CYP probe substrates (cocktail assay), as previously described with a slight modification. Concentrations of each CYP probe in Table 1 were used close to their reported Km values.
(§2) Briefly, a 90-µL incubation mixture, including pooled human liver microsomes (final concentration 0.1 mg/mL), 50 mM phosphate buffer (pH 7.4), each CYP-probe substrate cocktail set, and SPN (0–50 μM), was pre-incubated for 5 min at 37 °C. SPN was dissolved in methanol and spiked into the incubation mixture to a final concentration of 0.5% methanol. All P450-selective substrates (except coumarin due to solubility) were dissolved in methanol and serially diluted with methanol to the required concentrations, and the organic solvent was subsequently evaporated under a gentle stream of N2 gas to minimize the effects of organic solvents on CYP activities. On the other hand, coumarin dissolved in 50 mM phosphate buffer (pH 7.4) was directly added into the mixed tube. The reaction was initiated by adding 10-µL aliquot of NADPH-generating system (1.3 mM NADP^+, 3.3 mM glucose 6-phosphate, 3.3 mM MgCl2, and 0.4 unit/mL glucose-6-phosphate dehydrogenase) before 15 min incubation at 37 °C in a shaking water bath. […]
(§3) The IC50 values were calculated via nonlinear least-squares regression analysis from logarithmic plots of inhibitor concentration versus percentage of activity remaining after inhibition, using SigmaPlot (ver. 14.0; Systat Software Inc, Chicago, IL, USA). The Ki values were determined from the equations for a single substrate single inhibitor model and the software available in the SigmaPlot Enzyme Kinetics module. Competitive, non-competitive, uncompetitive, or mixed inhibition models were evaluated and ranked according to the best fit based on Akaike Information Criterion (AIC) values. […]
(In general: Liver microsomes are vesicles of endoplasmic reticulum, rich in cytochrome P450 enzymes.)

In another data set the test system is CYP2C8. The settings on record: in humans; cited from earlier work.
The target in a further data set is T2, CYP2E1 (Homo sapiens, UniProt P05181).
T2 construct: tissue Corning Life Sciences; host or cells: pooled human liver microsomes, 150 donors
T2 sequence (P05181 whole entry): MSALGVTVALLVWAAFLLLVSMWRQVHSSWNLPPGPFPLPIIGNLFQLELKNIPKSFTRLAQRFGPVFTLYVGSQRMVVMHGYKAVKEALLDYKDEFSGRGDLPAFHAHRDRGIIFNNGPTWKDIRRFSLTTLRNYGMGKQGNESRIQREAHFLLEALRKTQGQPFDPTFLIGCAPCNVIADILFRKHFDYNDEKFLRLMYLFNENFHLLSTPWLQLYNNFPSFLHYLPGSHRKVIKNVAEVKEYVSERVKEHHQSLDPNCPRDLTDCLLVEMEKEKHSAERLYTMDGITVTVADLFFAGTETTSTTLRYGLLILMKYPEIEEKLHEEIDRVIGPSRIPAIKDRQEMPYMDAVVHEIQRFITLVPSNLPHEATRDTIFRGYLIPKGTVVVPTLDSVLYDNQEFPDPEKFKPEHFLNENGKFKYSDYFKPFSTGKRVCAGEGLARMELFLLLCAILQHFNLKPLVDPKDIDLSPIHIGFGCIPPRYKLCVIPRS
Kind of data set: Reversible CYP2E1 inhibition, cocktail assay (chlorzoxazone 6-hydroxylase) in human liver microsomes. Format: biochemical. The procedure: as §1, §2, §3

A short description of data set [3]: Bi-directional Caco-2 cell permeability. Format: in vitro ADME. The settings on record: human, Caco-2; 10 μM, 2 h, n = 3. How it is done:
Caco-2 cell permeability was assessed to predict the oral absorption of SPN. Cell culture and transport studies were performed as previously described. Briefly, for the bi-directional transport studies, the cells were seeded at a density of 1 × 10^5 cells/well, and the cell medium was replaced until they formed confluent monolayers. On the 25th day, the cell monolayers were washed with pre-warmed HBSS buffer. […] Before the experiment, the integrity of the cell monolayers was evaluated by measuring the transepithelial electrical resistance using a Millicell ohmmeter. After 2 h incubation at 37 °C, samples were withdrawn from both sides, respectively. All samples were stored at −80 °C until LC-MS/MS analysis, and all experiments were performed in triplicate.
The apparent permeability coefficient (Papp) was calculated using the following equation. Papp = (Vr/C0) × (1/A) × ([Drug]/t) where, Vr is the volume of medium in the receiver chamber, C0 is the donor compartment concentration at time zero, A is the area of the cell monolayer, t is the treatment time of the drug, and [Drug] is the drug concentration in the receiver chamber.
A general note: Passage across Caco-2 layers is used to estimate intestinal permeability.

A further data set can be described thus: in vivo. The following applies: male, Sprague-Dawley, rat, po, 2 mg/kg.
For data set [4] the following is noted: male, Sprague-Dawley, rat, in vivo, po, 2 mg/kg.
Method: as §4, §5, §6

Like-named read-outs stand apart in the source and are kept apart here.

Method for in vivo: as §4, §5, §6

As to `Cc1c(Cl)cccc1Nc1ccccc1C(=O)O` [Tolfenamic acid], the plasma protein binding in data set [1] was 99.7%. The “CYP1A2 inhibition in vitro” value in the data set on CYP1A2 is on record as “strongly inhibited CYP1A2 in vitro”.

The term half-life denotes how long it takes for the measured level to halve. Higher therefore signals slow loss. Turning to `O=C(O)Cc1ccccc1Nc1c(Cl)cc(O)cc1Cl` [4′-hydroxydiclofenac], in [2] (with oral SPN 75 mg/kg), the AUC(0-t) is 742 ng·h/mL, the AUC(0-inf) is 1130 ng·h/mL, the Cmax was determined as 173 ± 40.8 ng/mL and the Tmax is 0.25 h. The compound also returned a half-life in [2] (with oral SPN 75 mg/kg) of 4.93 ± 0.995 h. Also, in data set [2] (without SPN), the AUC(0-t) was 747 ng·h/mL, the AUC(0-inf) is 1140 ng·h/mL, the Cmax stood at 180 ± 55.2 ng/mL and the Tmax is 0.167 h. For the same compound, in data set [2] (without SPN), the half-life worked out at 4.63 ± 1.17 h.

For orientation: IC50 means the concentration needed to halve the response being measured. Turning to `NCCc1c[nH]c2ccccc12` [Tryptamine, reference compound], it took 2.98 ± 0.635 µM to reach half-maximal inhibition against CYP2A6 (IC50).

For `CC(C)(O)c1ccccc1CC[C@@H](SCC1(CC(=O)O)CC1)c1cccc(/C=C/c2ccc3ccc(Cl)cc3n2)c1` [Montelukast], the plasma protein binding in [1] (reference not given) is above 99.7%. The “effect on the pharmacokinetics of the CYP2C8 substrates pioglitazone and rosiglitazone” value with CYP2C8 is reported as “no effect”.

For `CCN(CC)C(=S)S` [Diethyldithiocarbamate, reference compound], the IC50 against CYP2E1 amounted to 12 ± 3.67 µM.

A word on the Papp B→A: it is how fast a substance crosses the layer from the basolateral side. With `CC(C)NCC(O)COc1cccc2ccccc12` (centres unmarked) [propranolol, reference compound], in data set [3], the Papp B→A at 2 h, 10 µM was determined as 21.5 ± 2.19 ×10⁻⁶ cm/s.

In the data set “in vivo” (AUCt), `O=C(O)Cc1ccccc1Nc1c(Cl)cccc1Cl` [Diclofenac] showed an AUC(0-t) of 1060 ng·h/mL. The compound further gave an AUC(0-inf) in “in vivo” (AUC∞) of 1200 ng·h/mL. In “in vivo” (Cmax), this compound registered a Cmax of 882 ± 245 ng/mL. Moreover, the Tmax in “in vivo” (Tmax, median (ranges)) was 5 min. In “in vivo” (t1/2), this compound displayed a half-life of 2.55 ± 1 h. Further, the AUCt in [4] was 69.4 ± 2.98 µg·min/mL.
